Assay results from PubChem BioAssay (NCI).
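GI50 marks 50% less growth. Definition used: TGI = concentration required for complete inhibition of growth.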

Columns and labels:
Assay in all cases: NCI tumour cell line growth inhibition, 384-well format; in the data active = GI50 below about 0.43 µM; inactive = the rest
OVCAR-8 ovarian = system: OVCAR-8 ovarian
MDA-MB-468 breast = system: MDA-MB-468 breast
SF-539 CNS = system: SF-539 CNS
SNB-75 CNS = system: SNB-75 CNS
NCI-H522 lung = system: NCI-H522 lung
SNB-19 CNS = system: SNB-19 CNS
SK-MEL-28 melanoma = system: SK-MEL-28 melanoma
786-0 renal = system: 786-0 renal
NCI-H460 NSCLC = system: NCI-H460 NSCLC
SK-MEL-5 melanoma = system: SK-MEL-5 melanoma
EKVX NSCLC = system: EKVX NSCLC
HOP-62 NSCLC = system: HOP-62 NSCLC
T-47D breast = system: T-47D breast
KM12 colon = system: KM12 colon
HL-60(TB) leukemia = system: HL-60(TB) leukemia
SR leukemia = system: SR leukemia
HCT-116 colon = system: HCT-116 colon
UACC-257 melanoma = system: UACC-257 melanoma
SW-620 colon = system: SW-620 colon
HS 578T breast = system: HS 578T breast
NCI/ADR-RES ovarian = system: NCI/ADR-RES ovarian
NCI-H23 lung = system: NCI-H23 lung
HCT-15 colon = system: HCT-15 colon
IGROV1 ovarian = system: IGROV1 ovarian
OVCAR-4 ovarian = system: OVCAR-4 ovarian
BT-549 breast = system: BT-549 breast
HCC-2998 colon = system: HCC-2998 colon
HOP-92 NSCLC = system: HOP-92 NSCLC
HT29 colon = system: HT29 colon
MCF7 breast = system: MCF7 breast
SF-295 CNS = system: SF-295 CNS
RXF 393 renal = system: RXF 393 renal
NCI-H226 lung = system: NCI-H226 lung
LOX IMVI melanoma = system: LOX IMVI melanoma
SK-OV-3 ovarian = system: SK-OV-3 ovarian
NCI-H322M lung = system: NCI-H322M lung
OVCAR-3 ovarian = system: OVCAR-3 ovarian
U251 glioblastoma = system: U251 glioblastoma
DU-145 prostate = system: DU-145 prostate
K-562 leukemia = system: K-562 leukemia
MDA-MB-435 melanoma = system: MDA-MB-435 melanoma
MDA-MB-231 breast = system: MDA-MB-231 breast
M14 melanoma = system: M14 melanoma
RPMI-8226 leukemia = system: RPMI-8226 leukemia
SK-MEL-2 melanoma = system: SK-MEL-2 melanoma
MALME-3M melanoma = system: MALME-3M melanoma
OVCAR-5 ovarian = system: OVCAR-5 ovarian

CC(=O)OC[C@H]1O[C@@H](n2ccc(=O)[nH]c2=O)[C@H](OC(C)=O)[C@@H]1OC(C)=O
inactive: GI50 (OVCAR-8 ovarian) > 100 µM | GI50 (MDA-MB-468 breast) > 100 µM | GI50 (SF-539 CNS) > 100 µM | GI50 (SNB-75 CNS) > 100 µM | GI50 (NCI-H522 lung) > 100 µM | GI50 (SNB-19 CNS) > 100 µM | GI50 (SK-MEL-28 melanoma) > 100 µM | GI50 ([…]-0 renal) > 100 µM | GI50 (NCI-H460 NSCLC) > 100 µM | GI50 (SK-MEL-5 melanoma) > 100 µM | GI50 (EKVX NSCLC) > 100 µM | GI50 (HOP-62 NSCLC) > 100 µM | GI50 (T-47D breast) > 100 µM | GI50 (KM12 colon) > 100 µM | GI50 (HL-60(TB) leukemia) > 100 µM | GI50 (SR leukemia) > 100 µM | GI50 (HCT-116 colon) > 100 µM | GI50 (UACC-257 melanoma) > 100 µM | GI50 (SW-620 colon) > 100 µM | GI50 (HS 578T breast) > 100 µM | GI50 (NCI/ADR-RES ovarian) > 100 µM | GI50 (NCI-H23 lung) > 100 µM | GI50 (HCT-15 colon) > 100 µM | GI50 (IGROV1 ovarian) > 100 µM | GI50 (OVCAR-4 ovarian) > 100 µM | GI50 (BT-549 breast) > 100 µM | GI50 (HCC-2998 colon) > 100 µM | GI50 (HOP-92 NSCLC) > 100 µM | GI50 (HT29 colon) > 100 µM | GI50 (MCF7 breast) > 100 µM | GI50 (SF-295 CNS) > 100 µM | GI50 (RXF 393 renal) > 100 µM | GI50 (NCI-H226 lung) > 100 µM | GI50 (LOX IMVI melanoma) > 100 µM | GI50 (SK-OV-3 ovarian) > 100 µM | GI50 (NCI-H322M lung) > 100 µM | GI50 (OVCAR-3 ovarian) > 100 µM | GI50 (U251 glioblastoma) > 100 µM | GI50 (DU-145 prostate) > 100 µM | GI50 (K-562 leukemia) > 100 µM | GI50 (MDA-MB-435 melanoma) > 100 µM | GI50 (MDA-MB-231 breast) > 100 µM | GI50 (M14 melanoma) > 100 µM | GI50 (RPMI-8226 leukemia) > 100 µM | GI50 (SK-MEL-2 melanoma) > 100 µM | GI50 (MALME-3M melanoma) > 100 µM | GI50 (OVCAR-5 ovarian) > 100 µM
> 100 µM: TGI (OVCAR-8 ovarian) | TGI (MDA-MB-468 breast) | TGI (SF-539 CNS) | TGI (SNB-75 CNS) | TGI (NCI-H522 lung) | TGI (SNB-19 CNS) | TGI (SK-MEL-28 melanoma) | TGI (786-0 renal) | TGI (NCI-H460 NSCLC) | TGI (SK-MEL-5 melanoma) | TGI (EKVX NSCLC) | TGI (HOP-62 NSCLC) | TGI (T-47D breast) | TGI (KM12 colon) | TGI (HL-60(TB) leukemia) | TGI (SR leukemia) | TGI (HCT-116 colon) | TGI (UACC-257 melanoma) | TGI (SW-620 colon) | TGI (HS 578T breast) | TGI (NCI/ADR-RES ovarian) | TGI (NCI-H23 lung) | TGI (HCT-15 colon) | TGI (IGROV1 ovarian) | TGI (OVCAR-4 ovarian) | TGI (BT-549 breast) | TGI (HCC-2998 colon) | TGI (HOP-92 NSCLC) | TGI (HT29 colon) | TGI (MCF7 breast) | TGI (SF-295 CNS) | TGI (RXF 393 renal) | TGI (NCI-H226 lung) | TGI (LOX IMVI melanoma) | TGI (SK-OV-3 ovarian) | TGI (NCI-H322M lung) | TGI (OVCAR-3 ovarian) | TGI (U251 glioblastoma) | TGI (DU-145 prostate) | TGI (K-562 leukemia) | TGI (MDA-MB-435 melanoma) | TGI (MDA-MB-231 breast) | TGI (M14 melanoma) | TGI (RPMI-8226 leukemia) | TGI (SK-MEL-2 melanoma) | TGI (MALME-3M melanoma) | TGI (OVCAR-5 ovarian)

C#Cc1cccc(Nc2ncnc3cc(OCCOC)c(OCCOC)cc23)c1
active: GI50 (MDA-MB-468 breast) 0.183 µM | GI50 (IGROV1 ovarian) 0.385 µM | GI50 (NCI-H322M lung) 0.193 µM
> 89 µM: TGI (T-47D breast)
> 100 µM: TGI (OVCAR-8 ovarian) | TGI (SF-539 CNS) | TGI (SNB-19 CNS) | TGI (SK-MEL-28 melanoma) | TGI (786-0 renal) | TGI (NCI-H460 NSCLC) | TGI (EKVX NSCLC) | TGI (HOP-62 NSCLC) | TGI (KM12 colon) | TGI (HCT-116 colon) | TGI (UACC-257 melanoma) | TGI (SW-620 colon) | TGI (NCI/ADR-RES ovarian) | TGI (NCI-H23 lung) | TGI (HCT-15 colon) | TGI (OVCAR-4 ovarian) | TGI (BT-549 breast) | TGI (HCC-2998 colon) | TGI (HT29 colon) | TGI (MCF7 breast) | TGI (SF-295 CNS) | TGI (NCI-H226 lung) | TGI (LOX IMVI melanoma) | TGI (OVCAR-3 ovarian) | TGI (U251 glioblastoma) | TGI (DU-145 prostate) | TGI (K-562 leukemia) | TGI (MDA-MB-435 melanoma) | TGI (MDA-MB-231 breast) | TGI (M14 melanoma) | TGI (SK-MEL-2 melanoma) | TGI (MALME-3M melanoma) | TGI (OVCAR-5 ovarian)
3.47 µM: TGI (NCI-H522 lung)
> 88.4 µM: TGI (RPMI-8226 leukemia)
50.5 µM: TGI (SNB-75 CNS)
inactive: GI50 (OVCAR-8 ovarian) 7.75 µM | GI50 (SF-539 CNS) 39.3 µM | GI50 (SNB-75 CNS) 8 µM | GI50 (NCI-H522 lung) 0.433 µM | GI50 (SNB-19 CNS) > 100 µM | GI50 (SK-MEL-28 melanoma) > 85.1 µM | GI50 ([…]-0 renal) 6.46 µM | GI50 (NCI-H460 NSCLC) 9.81 µM | GI50 (SK-MEL-5 melanoma) 1.94 µM | GI50 (EKVX NSCLC) 1.93 µM | GI50 (HOP-62 NSCLC) 28.5 µM | GI50 (T-47D breast) 6.56 µM | GI50 (KM12 colon) > 27.8 µM | GI50 (HL-60(TB) leukemia) 6.29 µM | GI50 (SR leukemia) 21.4 µM | GI50 (HCT-116 colon) 11.6 µM | GI50 (UACC-257 melanoma) 96.9 µM | GI50 (SW-620 colon) > 100 µM | GI50 (HS 578T breast) 3.85 µM | GI50 (NCI/ADR-RES ovarian) 12.6 µM | GI50 (NCI-H23 lung) 25.2 µM | GI50 (HCT-15 colon) 4.58 µM | GI50 (OVCAR-4 ovarian) 32 µM | GI50 (BT-549 breast) 14.9 µM | GI50 (HCC-2998 colon) 48.4 µM | GI50 (HOP-92 NSCLC) 11.9 µM | GI50 (HT29 colon) > 90.8 µM | GI50 (MCF7 breast) > 100 µM | GI50 (SF-295 CNS) > 51.9 µM | GI50 (RXF 393 renal) 7.83 µM | GI50 (NCI-H226 lung) 9.26 µM | GI50 (LOX IMVI melanoma) 7.97 µM | GI50 (SK-OV-3 ovarian) 1.58 µM | GI50 (OVCAR-3 ovarian) 4.02 µM | GI50 (U251 glioblastoma) 43.4 µM | GI50 (DU-145 prostate) 1.98 µM | GI50 (K-562 leukemia) 7.57 µM | GI50 (MDA-MB-435 melanoma) > 100 µM | GI50 (MDA-MB-231 breast) > 46.6 µM | GI50 (M14 melanoma) 6.72 µM | GI50 (RPMI-8226 leukemia) 7.94 µM | GI50 (SK-MEL-2 melanoma) 8.78 µM | GI50 (MALME-3M melanoma) 16.8 µM | GI50 (OVCAR-5 ovarian) 6.96 µM
> 67.5 µM: TGI (SR leukemia)
> 27.3 µM: TGI (RXF 393 renal)
0.777 µM: TGI (MDA-MB-468 breast)
> 26.3 µM: TGI (SK-MEL-5 melanoma)
> 96.6 µM: TGI (HOP-92 NSCLC)
5.62 µM: TGI (IGROV1 ovarian)
45.8 µM: TGI (HS 578T breast)
8.28 µM: TGI (SK-OV-3 ovarian)
> 43.1 µM: TGI (HL-60(TB) leukemia)
1.66 µM: TGI (NCI-H322M lung)
